Here are results for five compounds from US11135143B2, “Oral care compositions comprising tin ions” (The Procter & Gamble Company, priority 2020, dated 2021).

The subject of data set [1] is Human gingival epithelial (HGE) cell. In words: Barrier protection analysis by real time cell analyzer (RTCA), impedance / Cell Index. The format is cell-based. Conditions: HGE cells. The protocol: Cell Culture Human gingival epithelial (HGE) cell was maintained in a 37° C. incubator with 5% CO2 saturation. Dulbecco's modified Eagle's medium (DMEM, Gibco) containing 10% fetal calf serum, 1% penicillin-streptomycin was used as the complete culture medium, which was changed every 2-3 days. Barrier Protection Analysis by Real Time Cell Analyzer (RTCA) The real time cell analyzer (RTCA) xCELLigence RTCA DP (ACEA Bioscience Inc., San Diego, Calif.) equipment, based on impedance measurement, was used to monitor the barrier protection of polyols. 50 μl complete culture medium was added to E-plates to obtain background readings, followed by the addition of 100 μl of the cell suspension. The E-plates containing 28000 cell/well were incubated at 37° C., 5% CO2 for 22-24 h until cells were confluent. The culture medium was changed to DMEM or DMEM with 1% of polyols, non reducing sugars or combinations and incubated at 37° C., 5% CO2 for 2 h. The barrier disruptor (capsaicin to a final concentration of 75 μM in this case) was added to wells of E-plate. Impedance as reflected by the Cell Index (CI) was recorded continuously for 16-24 h. The CI curve was normalized at the time point just before adding polyols. The normalized CI at 3 h after adding of barrier disruptor was compared to blank control to generate the percentage of barrier function % comprimisation.

The nature of data set [2]: Solubility of tin ions (SnF2) in polyol solutions at various pH. The format is physicochemical. Conditions: for Appearance of polyol solution with SnF2 (cloudy = formation of Sn(OH)2): pH 8-10, pH raised with NaOH; for Appearance of polyol solution with stannous fluoride: every point above pH of 4. The protocol: Solubility of Tin Ions at a pH of Greater than 7
A 30% (w/w) solution was prepared for each polyol or combination of polyols was prepared using the appropriate amount of the pure polyol and deionized water. Next, 46 g of the 30% (w/w) polyol solution was placed in a 250 mL glass beaker with a stirring bar on top of a magnetic stirring apparatus. 21 g of deionized water was added to the glass beaker and the magnetic stirring apparatus was started to commence stirring of the solution. A pH electrode was connected to a pH meter (VWR Scientific, Model 9100, Radnor, Pa.) and the pH electrode (ThermoFisher Scientific, Orion 8165BNWP, Waltham, Mass.) was placed in the stirring polyol solution.
0.45 grams of a tin ion source, such as stannous fluoride, was added to the stirring polyol solution. The pH was recorded once the tin ion source was completely added. The pH of the solution was increased by dropwise addition of a 33% (w/w) solution of NaOH.
Solubility of Tin Ions at a pH of Less than 7
0.45 grams of a tin ion source, such as stannous fluoride, was added to the stirring polyol solution. The pH was recorded once the tin ion source was completely added. The pH of the solution was decreased by dropwise addition of a 33% (w/w) solution of HCl.
A solution that appeared cloudy indicated the formation of insoluble tin complexes. At a pH of greater than 7, a cloudy solution indicated the formation of Sn(OH)2. FIG. 1-6 illustrate TABLE 1 by showing the appearance of each solution described in TABLE 1.

Setting [3] is: pH 2-4, 30% (w/w) polyol solution diluted with water, 0.45 g stannous fluoride, pH lowered with HCl.
Setting [4] is: DMEM with 1% polyol(s) for 2 h, then capsaicin 75 μM, normalized CI at 3 h after barrier disruptor compared to blank control (100%).

Take `COc1cc(CNC(=O)CCCC/C=C/C(C)C)ccc1O` [Capsaicin, capsaicin, reference compound]: the “Barrier Function” value in data set [1] (barrier disruptor capsaicin 75 μM alone, no polyol, normalized CI at 3 h compared to blank control (100%)) was 28%; in data set [1] (barrier disruptor capsaicin 75 μM alone, no polyol, normalized CI at 3 h compared to blank control (100%), listed as capsaicin) it was 28%.
On to `OC[C@@H](O)[C@@H](O)[C@H](O)[C@@H](O)CO` [Sorbitol], for which the “Appearance of polyol solution with SnF2 (cloudy = formation of insoluble tin complexes)” value in data set [2] (setting [3]) was “clear”; in data set [2] (pH 4-6), “cloudy”; in data set [2] (pH 6-8) it was “cloudy”. The “Appearance of polyol solution with SnF2 (cloudy = formation of Sn(OH)2)” value (shortened to “Appearance … (cloudy = formation of Sn(OH)2)”) in data set [2] was “clear”. The “Barrier Function” value in data set [1] (setting [4]) worked out at 46%; in data set [1] (DMEM with 1% polyol(s) for 2 h, then capsaicin 75 μM, normalized CI at 3 h after barrier disruptor compared to blank control (100%), listed as sorbitol), 46%.
With `OCC(O)CO` [Glycerin, reference compound], the “Barrier Function” value in data set [1] (setting [4]) was 44%; in data set [1] (DMEM with 1% polyol(s) for 2 h, then capsaicin 75 μM, normalized CI at 3 h after barrier disruptor compared to blank control (100%), listed as glycerin), 44%.
With Isomalt, the “Appearance of polyol solution with stannous fluoride” value in data set [2] is “cloudy”. Also, the figures for the “Appearance of polyol solution with SnF2 (cloudy = formation of insoluble tin complexes)” value in data set [2] (setting [3]), in data set [2] (pH 4-6) and in data set [2] (pH 6-8) were “clear”, “cloudy” and “cloudy”, respectively. Further, the “Appearance … (cloudy = formation of Sn(OH)2)” value in data set [2] is given as “cloudy”. Moreover, the “Barrier Function” value in data set [1] (setting [4]) stood at 85%.
`OC[C@H]1O[C@H](O[C@H]2O[C@H](CO)[C@@H](O)[C@H](O)[C@H]2O)[C@H](O)[C@@H](O)[C@@H]1O` [Trehalose]: in data set [2], the “Appearance of polyol solution with stannous fluoride” value is “cloudy”. Moreover, the “Appearance of polyol solution with SnF2 (cloudy = formation of insoluble tin complexes)” value in data set [2] (setting [3]) is “clear”; in data set [2] (pH 4-6), “cloudy”; in data set [2] (pH 6-8) it was “cloudy”. In data set [2], the “Appearance … (cloudy = formation of Sn(OH)2)” value is given as “cloudy”. Besides, the “Barrier Function” value in data set [1] (setting [4]) came to 102%.
